Test results from patent US20050142581A1, “Microrna as ligands and target molecules” (priority 2003, published 2005).
Oligonucleotides are written 5' to 3', each unit as a sugar letter and its base; * is a phosphorothioate linkage, no mark a phosphodiester; rarer units and linkages stand in square brackets, end groups in braces. Plain capitals give the bases only. e = 2'-O-(2-methoxyethyl) (MOE); [5mC] = 5-methylcytosine; d = 2'-deoxy (DNA)

These substances were tested on human CD40 mRNA (assay: Inhibition of CD40 mRNA levels by oligonucleotides (real-time RT-PCR)). Settings: 2'-MOE gapmers, 18 nucleotides, phosphorothioate throughout; averaged from three experiments.
Format: cell-based
Design: concentration or dose not given beside the values
Protocol: When cells reach about 80% confluency, they are treated with oligonucleotide. For cells grown in 96-well plates, wells are washed once with 200 μl Opti-MEM-1 reduced-serum medium (Life Technologies) and then treated with 130 μl of Opti-MEM-1 containing 3.75 μg/ml LIPOFECTIN (Life Technologies) and the desired oligonucleotide at a final concentration of 150 nM. After 4 hours of treatment, the medium was replaced with fresh medium. Cells were harvested 16 hours after oligonucleotide treatment.
Poly(A)+ mRNA was isolated according to Miura et al. (Clin. Chem., 1996, 42, 1758). Briefly, for cells grown on 96-well plates, growth medium was removed from the cells and each well was washed with 200 ul cold PBS. 60 ul lysis buffer (10 mM Tris-HCl, pH 7.6, 1 mM EDTA, 0.5 M NaCl, 0.5% NP-40, 20 mM vanadyl-ribonucleoside complex) was added to each well, the plate was gently agitated and then incubated at room temperature for five minutes. 55 ul of lysate was transferred to Oligo d(T) coated 96 well plates (AGCT Inc., Irvine, Calif.). Plates were incubated for 60 minutes at room temperature, washed 3 times with 200 ul of wash buffer (10 mM Tris-HCl pH 7.6, 1 mM EDTA, 0.3 M NaCl). After the final wash, the plate was blotted on paper towels to remove excess wash buffer and then air-dried for 5 minutes. 60 ul of elution buffer (5 mM Tris-HCl pH 7.6), preheated to 70° C. was added to each well, the plate was incubated on a 90° hot plate for 5 minutes, and the eluate then transferred to a fresh 96 well plate. Cells grown on 100 mm or other standard plates may be treated similarly, using appropriate volumes of all solutions.
Quantitation of CD40 mRNA levels was determined by real-time PCR (RT-PCR) using the ABI PRISM 7700 Sequence Detection System (PE-Applied Biosystems, Foster City, Calif.) according to manufacturer's instructions. This is a closed-tube, non-gel-based, fluorescence detection system which allows high-throughput quantitation of polymerase chain reaction (PCR) products in real-time.
As opposed to standard PCR, in which amplification products are quantitated after the PCR is completed, products in RT-PCR are quantitated as they accumulate. This is accomplished by including in the PCR reaction an oligonucleotide probe that anneals specifically between the forward and reverse PCR primers, and contains two fluorescent dyes. A reporter dye (e.g., JOE or FAM, PE-Applied Biosystems, Foster City, Calif.) is attached to the 5′ end of the probe and a quencher dye (e.g., TAMRA, PE-Applied Biosystems, Foster City, Calif.) is attached to the 3′ end of the probe. When the probe and dyes are intact, reporter dye emission is quenched by the proximity of the 3′ quencher dye. During amplification, annealing of the probe to the target sequence creates a substrate that can be cleaved by the 5′-exonuclease activity of Taq polymerase.
With each cycle, additional reporter dye molecules are cleaved from their respective probes, and the fluorescence intensity is monitored at regular (six-second) intervals by laser optics built into the ABI PRISM 7700 Sequence Detection System. In each assay, a series of parallel reactions containing serial dilutions of mRNA from untreated control samples generates a standard curve that is used to quantitate the percent inhibition after antisense oligonucleotide treatment of test samples.
RT-PCR reagents were obtained from PE-Applied Biosystems, Foster City, Calif. RT-PCR reactions were carried out by adding 25 ul PCR cocktail (1× Taqman buffer A, 5.5 mM MgCl2, 300 uM each of dATP, dCTP and dGTP, 600 uM of dUTP, 100 nM each of forward primer, reverse primer, and probe, 20 U RNAse inhibitor, 1.25 units AmpliTaq Gold, and 12.5 U MuLV reverse transcriptase) to 96 well plates containing 25 ul poly(A) mRNA solution. […]

Substance | % Inhibition (Inhibition of CD40 mRNA Levels by Chimeric Phosphorothioate Oligonucleotides)
19232 (antisense e[5mC]*eA*eG*eT*dG*dA*dA*dC*dT*dC*dT*dG*dT*dG*e[5mC]*eA*eG*eT) [compound 19232] | 40.26%
19214 (DNA e[5mC]*eA*eG*eA*dG*dG*dC*dA*dG*dA*dC*dG*dA*dA*e[5mC]*e[5mC]*eA*eT; antisense) [compound 19214] | 23.68%
19265 (e[5mC]*eA*e[5mC]*eA*dG*dC*dT*dT*dG*dT*dC*dC*dA*dA*eG*eG*eG*eT; antisense) [compound 19265] | 0.00%
19241 (antisense eG*eG*eT*eG*dC*dC*dC*dT*dT*dC*dT*dG*dC*dT*eG*eG*eA*e[5mC]) [compound 19241] | 78.91%
19261 (eG*eA*eT*eG*dA*dC*dA*dC*dA*dT*dT*dG*dG*dA*eG*eA*eA*eG; antisense) [compound 19261] | 13.81%
19294 (eA*e[5mC]*eT*eG*dA*dC*dT*dG*dG*dG*dC*dA*dT*dA*eG*e[5mC]*eT*e[5mC]; antisense) [compound 19294] | 11.55%
19249 (antisense eG*eG*eA*e[5mC]*dA*dC*dA*dG*dC*dT*dC*dT*dC*dA*e[5mC]*eA*eG*eG) [compound 19249] | 0.00%
19291 (eG*eG*eT*eG*dC*dA*dG*dC*dC*dT*dC*dA*dC*dT*eG*eT*e[5mC]*eT; antisense) [compound 19291] | 76.27%
19254 (antisense eG*eA*eA*eA*dC*dC*dC*dC*dT*dG*dT*dA*dG*dC*eA*eA*eT*e[5mC]) [compound 19254] | 0.00%
19219 (DNA eG*eA*eT*eG*dG*dA*dC*dA*dG*dC*dG*dG*dT*dC*eA*eG*e[5mC]*eA; antisense) [compound 19219] | 65.14%
19289 (e[5mC]*eT*e[5mC]*eT*dT*dT*dG*dC*dC*dA*dT*dC*dC*dT*e[5mC]*e[5mC]*eT*eG; antisense) [compound 19289] | 41.84%
19229 (antisense eT*e[5mC]*eA*e[5mC]*dT*dC*dA*dC*dC*dA*dG*dT*dT*dT*e[5mC]*eT*eG*eT) [compound 19229] | 40.64%
19252 (antisense eA*eA*eG*e[5mC]*dC*dG*dG*dG*dC*dG*dA*dG*dC*dA*eT*eG*eA*eG) [compound 19252] | 32.36%
19221 (antisense eG*eG*eT*eG*dG*dT*dT*dC*dT*dG*dG*dA*dT*dG*eG*eA*e[5mC]*eA) [compound 19221] | 81.33%
19264 (eG*eT*e[5mC]*e[5mC]*dA*dA*dG*dG*dG*dT*dG*dA*dC*dA*eT*eT*eT*eT; antisense) [compound 19264] | 70.99%
19215 (DNA eG*e[5mC]*eA*eG*dA*dG*dG*dC*dA*dG*dA*dC*dG*dA*eA*e[5mC]*e[5mC]*eA; antisense) [compound 19215] | 45.97%

Same assay, conditions: oligodeoxynucleotides with phosphorothioate backbones throughout; averages from three experiments

Substance | % INHIB. (Inhibition of CD40 mRNA Levels by Phosphorothioate Oligodeoxynucleotides)
18665 (DNA dA*dA*dT*dC*dT*dG*dC*dT*dT*dG*dA*dC*dC*dC*dC*dA*dA*dA; antisense) [compound 18665] | 5.59%
18669 (DNA dG*dC*dA*dG*dG*dG*dC*dT*dC*dG*dC*dA*dG*dA*dT*dG*dG*dT; antisense) [compound 18669] | 34.05%
18634 (DNA dG*dT*dG*dG*dG*dT*dG*dG*dT*dT*dC*dT*dG*dG*dA*dT*dG*dG; antisense) [compound 18634] | 0.00%
18698 (DNA dG*dT*dA*dA*dA*dG*dT*dC*dT*dC*dC*dT*dG*dC*dA*dC*dT*dG; antisense) [compound 18698] | 0.00%
18687 (DNA dG*dG*dG*dA*dT*dC*dA*dC*dC*dA*dC*dC*dA*dG*dG*dG*dC*dT; antisense) [compound 18687] | 0.00%
18643 (DNA dA*dC*dT*dC*dT*dG*dT*dG*dC*dA*dG*dT*dC*dA*dC*dT*dC*dA; antisense) [compound 18643] | 0.00%
18651 (DNA dG*dG*dT*dT*dG*dG*dG*dG*dT*dC*dG*dC*dA*dG*dT*dA*dT*dT; antisense) [compound 18651] | 0.00%
18637 (DNA dC*dT*dG*dG*dC*dA*dC*dA*dA*dA*dG*dA*dA*dC*dA*dG*dC*dA; antisense) [compound 18637] | 0.00%
18703 (DNA dG*dG*dT*dG*dC*dA*dG*dC*dC*dT*dC*dA*dC*dT*dG*dT*dC*dT; antisense) [compound 18703] | 0.00%
18653 (DNA dG*dG*dT*dG*dC*dC*dC*dT*dT*dC*dT*dG*dC*dT*dG*dG*dA*dC; antisense) [compound 18653] | 19.67%
18690 (DNA dT*dT*dT*dT*dG*dA*dT*dA*dA*dA*dG*dA*dC*dC*dA*dG*dC*dA; antisense) [compound 18690] | 0.00%
18673 (DNA dG*dA*dT*dG*dA*dC*dA*dC*dA*dT*dT*dG*dG*dA*dG*dA*dA*dG; antisense) [compound 18673] | 0.00%
18668 (DNA dG*dC*dT*dC*dG*dC*dA*dG*dA*dT*dG*dG*dT*dA*dT*dC*dA*dG; antisense) [compound 18668] | 0.00%
18639 (DNA dC*dT*dG*dT*dC*dC*dT*dG*dG*dC*dT*dG*dG*dC*dA*dC*dA*dA; antisense) [compound 18639] | 4.99%
18662 (DNA dT*dG*dC*dA*dG*dG*dA*dC*dA*dC*dA*dG*dC*dT*dC*dT*dC*dA; antisense) [compound 18662] | 0.00%
18702 (DNA dC*dT*dG*dT*dC*dT*dC*dT*dC*dC*dT*dG*dC*dA*dC*dT*dG*dA; antisense) [compound 18702] | 0.00%
18640 (DNA dC*dT*dC*dA*dC*dC*dA*dG*dT*dT*dT*dC*dT*dG*dT*dC*dC*dT; antisense) [compound 18640] | 0.00%
18641 (DNA dT*dC*dA*dC*dT*dC*dA*dC*dC*dA*dG*dT*dT*dT*dC*dT*dG*dT; antisense) [compound 18641] | 0.00%
18689 (DNA dA*dC*dC*dA*dG*dC*dA*dC*dC*dA*dA*dG*dA*dG*dG*dA*dT*dG; antisense) [compound 18689] | 0.00%
18697 (DNA dT*dG*dG*dA*dG*dC*dA*dG*dC*dA*dG*dT*dG*dT*dT*dG*dG*dA; antisense) [compound 18697] | 0.00%
